IC50 and maximal response data for 72 molecules are collected here from the supplement of paper PMC3493320.

As a reminder, the IC50 is the concentration needed to halve the response being measured.

Some results are limits rather than exact numbers.

The subject of the first experiment is NCI-H295R. The experiment is described as follows: IC50 (antiproliferative, ATP content). Conditions: 48 h. In short, it runs like this:
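Cell viability of adrenocortical carcinoma cells was assessed as ATP by CellTiter-Glo luminescence. Cells at 1500 per well in 1536-well plates, in serum-free DMEM with ITS, received compounds by pin transfer at 8 final concentrations (0.6 nM–46 µM) after overnight culture and were then held 48 h at 37 °C, 5% CO2. IC50 was calculated by logistic fitting against vehicle and positive-control wells, compounds with no concentration response being recorded as above the top dose.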
Molecule `CO[C@@]1(NC(=O)CSCC#N)C(=O)N2C(C(=O)[O-])=C(CSc3nnnn3C)CS[C@@H]21.[Na+]` gave an IC50 above 46 µM.
The molecule `Nc1nc2ccc(OC(F)(F)F)cc2s1` yielded an IC50 above 46 µM.
Same read-out and setting: in the case of `O=C(O)c1cc(-c2ccccc2)nc2ccccc12` it was above 46 µM; in that of `CC(C(=O)O)c1ccc(CC2CCCC2=O)cc1` (configuration not stated), above 46 µM; in that of `OCC(=O)[C@@]2(O)CC[C@H]3[C@@H]4CC\C1=C\C(=O)CC[C@]1(C)[C@H]4[C@@H](O)C[C@]23C`, above 46 µM.
Turning to `OC(c1ccccc1)(c1ccccc1)C1CCNCC1`, the IC50 was above 46 µM.
In turn, `COc1cc2nc(N3CCN(C(=O)C4COc5ccccc5O4)CC3)nc(N)c2cc1OC.CS(=O)(=O)O` (configuration not stated) returned an IC50 above 46 µM.
On to `O=C(NCCO[N+](=O)[O-])c1cccnc1`, for which the half-maximal inhibitory concentration (IC50) is above 46 µM.
For the molecule `C1COC(NC(C2CC2)C2CC2)=N1`, the IC50 is above 46 µM.
As to `Clc1cccc(SC2CCNCC2)n1`, the IC50 was above 46 µM.
For `OC[C@@H](O)[C@@H](O[C@@H]1O[C@H](CO)[C@H](O)[C@H](O)[C@H]1O)[C@H](O)[C@@H](O)CO`, the IC50 is above 46 µM.
`CC(C)COCC(CN(Cc1ccccc1)c1ccccc1)N1CCCC1` (configuration not stated) returned an IC50 above 46 µM.
Take `O=C(O)Cc1cn(-c2ccccc2)nc1-c1ccc(Cl)cc1`: the IC50 was above 46 µM.

For the next experiment, the system named is NCI-H295R. The experiment is described as follows: maximal response (efficacy) relative to DMSO (0%) and doxorubicin (-100%); higher = less growth inhibition. The conditions noted are these: 48 h.
Regarding `COc1cc2c(cc1OC)C(C(C(=O)N(CCc1ccc(OC)c(OC)c1OC)CCc1ccc(OC)c(OC)c1OC)c1ccccc1)=NCC2.Cl` (configuration not stated), the maximal response is -28.4%.
Same read-out and setting: as for `CC1(C)C3=C(C=CC=C3)/C(C2=C1C=CC=C2)=C/CCN(C)C.Cl`, the figure is -21.5%; as for `CCc1oc2ccccc2c1C(=O)c1cc(Br)c(O)c(Br)c1`, -59.3%.
Consider `COC(=O)c1ccccc1C(=O)c1ccc(OCCN2CCCCC2)cc1.Cl`, for which the maximal response was -26.8%.
As to `COc1cc([C@@H]2c3cc4c(cc3[C@H](O)[C@H]3COC(=O)[C@H]23)OCO4)cc(OC)c1OC`, the maximal response was -50.8%.
On the same count and under the same terms, as for `COc1c(C)c2c(c(O)c1CC=C(C)CCC(=O)OCCN1CCOCC1)C(=O)OC2`, the figure is -54.6%.
`Cc1c(C(=O)O)c(O)cc2c1C(=O)c1c(O)c([C@@H]3O[C@H](CO)[C@@H](O)[C@H](O)[C@H]3O)c(O)c(O)c1C2=O`: the maximal response was -50.2%.
In the case of `Nc1c(/N=N/c2ccc(-c3ccc(/N=N/c4cc(S(=O)(=O)[O-])c5ccccc5c4N)cc3)cc2)cc(S(=O)(=O)[O-])c2ccccc12.[Na+].[Na+]`, the maximal response was -53.2%.
Same read-out and setting: as for `COc1cc(CNC(=O)CCCC/C=C/C(C)C)ccc1O`, the figure is -21.6%; as for `CCN(CC)C(=S)SSC(=S)N(CC)CC`, -27.3%; as for `CCCCN(CCCC)CC(O)c1cc(Cl)cc2c1-c1ccc(Cl)cc1/C2=C/c1ccc(Cl)cc1` (configuration not stated), -31.5%.
On to `CCCOc1ccc2[nH]c(NC(=O)OC)nc2c1`, for which the maximal response was -48.4%.
In the case of `Cl.Cl/C(=C\n1cncn1)c1ccc(Cl)cc1Cl`, the maximal response was -28.8%.
`Nc1ccc(O)c(C(=O)O)c1`: the maximal response was -20.8%.
Consider `N\1(C(N(C(CC)C)/N=C/1)=O)c7ccc(N2CCN(CC2)c6ccc(OC[C@@H]5O[C@](c3c(cc(cc3)Cl)Cl)(Cn4ncnc4)OC5)cc6)cc7` (some centres not stated), for which the maximal response is -23.1%.
`Nc1ncnc2[nH]cnc12`: the maximal response turned out to be 30.9%.
In the case of `COC(CNC(=O)c1ccccc1OCC(=O)O)[CH2][Hg][OH]` (configuration not stated), the maximal response worked out at 29%.
Regarding `O=C(N)[C@@](C2=CC=CC=C2)([C@H]3CN(CCC4=CC(CCO5)=C5C=C4)CC3)C1=CC=CC=C1.Br`, the maximal response is -31.7%.
Same read-out and setting: in the case of `C[C@@H]1CCC2[C@@H](C)[C@@H](O)O[C@@H]3O[C@@]4(C)CC[C@@H]1[C@@]23OO4` (some centres not stated) it was -56.4%; in that of `O=C2O[C@](C#CC3CC3)([C@](F)(F)F)C1=CC(Cl)=CC=C1N2`, -38%.
Still for that read-out and setting: as for `CCC(NC(C)C)C(O)c1ccc(O)c(O)c1.CS(=O)(=O)O` (configuration not stated), the figure is -36%; as for `CC(C)OC(=O)Nc1ccc2[nH]c(-c3cscn3)nc2c1`, -56.3%.
With `O=C1c2ccccc2C(=O)C1c1ccccc1`, the maximal response is -24.9%.
As for `CC(C)(COP(=O)([O-])OP(=O)([O-])OC[C@H]1O[C@@H](n2cnc3c(N)ncnc32)[C@H](O)[C@@H]1OP(=O)([O-])O)C(O)C(=O)NCCC(=O)NCCS.O.O.[Li+].[Li+].[Li+]` (some centres not stated), the maximal response was determined as 33%.
Turning to `Nc1nc(Cl)nc2c1ncn2[C@@H]1O[C@H](CO)[C@@H](O)[C@@H]1F`, the maximal response was -29.5%.
For the molecule `CCCCc1ccc2[nH]c(NC(=O)OC)nc2c1`, the maximal response is -49.6%.
For the molecule `O=c1[nH]c2ccccc2n1CCCN1CCC(n2c(=O)[nH]c3cc(Cl)ccc32)CC1`, the maximal response was -25.4%.
For `Oc1ccc(Cl)c2cccnc12`, the maximal response was -33.2%.
For the molecule `COC(=O)C1=C(C)NC(C)=C(C(=O)OCC(C)C)C1c1ccccc1[N+](=O)[O-]` (configuration not stated), the maximal response was -32.8%.
With `O=[N+]([O-])c1cc(I)c(O)c(I)c1`, the maximal response is -32.6%.
Still for that read-out and setting: in the case of `O=C(N[C@@H](c1ccccc1)[C@@H](O)C(=O)O[C@H]3C[C@@]4(O)[C@@H](OC(=O)c2ccccc2)[C@@H]5[C@]6(OC(C)=O)CO[C@@H]6C[C@H](O)[C@@]5(C)C(=O)[C@H](OC(C)=O)\C(=C3/C)C4(C)C)c7ccccc7` it was -55.9%.
`CCCc1nc2c(C)cc(-c3nc4ccccc4n3C)cc2n1Cc1ccc(-c2ccccc2C(=O)O)cc1`: the maximal response was -22.7%.
The same measure, in the same setting: in the case of `CN1C(=O)C(O)N=C(c2ccccc2)c2cc(Cl)ccc21` (configuration not stated) it was -27.8%; in that of `O=C(CCCCCCC(=O)Nc1ccccc1)NO`, -37.1%.
As for `Cc1ccc2c(Br)cc(Br)c(O)c2n1`, the maximal response is -71.4%.
Regarding `O=C(NC(=O)c1c(F)cccc1F)Nc1ccc(Cl)c(Oc2ncc(C(F)(F)F)cc2Cl)c1`, the maximal response is -39.7%.
In the case of `O=C(O)Cc1cc(I)c(Oc2ccc(O)c(I)c2)c(I)c1`, the maximal response is -31.4%.
Take `CCCCOc1ccc(CC(=O)NO)cc1`: the maximal response was -24%.
Still for that read-out and setting: as for `O=[C@@](OC)[C@](C(N3)=C(C4)C2=C3C=CC=C2)([C@@]5=CC([C@]69[C@]8([H])[C@](C=CCN8CC9)(CC)[C@@H](OC(C)=O)[C@](O)([C@](OC)=O)[C@@]([H])6N7C)=C7C=C5OC)C[C@]1([H])C=C(CC)CN4C1.O=C(O)C(O)C(O)C(O)=O.O=C(O)C(O)C(O)C(O)=O`, the figure is -56.6%; as for `CN(Cc1ccc(C(C)(C)C)cc1)Cc1cccc2ccccc12`, -43.8%.
Regarding `O=C1C(O)=C([C@H]2CC[C@H](c3ccc(Cl)cc3)CC2)C(=O)c2ccccc21`, the maximal response is -51%.
As for `Cc1cc2nc3c(=O)[nH]c(=O)nc-3n(C[C@H](O)[C@H](O)[C@H](O)COP(=O)([O-])OP(=O)([O-])OC[C@H]3O[C@@H](n4cnc5c(N)ncnc54)[C@H](O)[C@@H]3O)c2cc1C.[Na+].[Na+]`, the maximal response was 22%.
On to `O=C(C4=CC(OC)=C(C(OC)=C4)OC)O[C@@H]1C[C@@]3([H])[C@@](C[C@](N5C3)([H])C2=C(CC5)C(C=CC=C6)=C6N2)([H])[C@H]([C@](OC)=O)[C@H]1OC`, for which the maximal response was -51.8%.
With `CN1CCC(CN2c3ccccc3Sc3ccccc32)C1.Cl` (configuration not stated), the maximal response was -26.6%.
Turning to `COc1cc(C)c(Cc2cnc(N)nc2N)cc1OC`, the maximal response is -57.4%.
On the same count and under the same terms, in the case of `CCc1cccc(N(C)C(=N)Nc2cccc3ccccc23)c1.Cl` it was -29.2%.
On the same count and under the same terms, in the case of `COc1c(C)c2c(c(O)c1C/C=C(\C)CCC(=O)O)C(=O)OC2` it was -29.5%; in that of `COC(=O)Nc1nc2cc(C(=O)c3ccccc3)ccc2[nH]1`, -50.2%.
On to `OC[C@H]1O[C@@H](n2cnc3c(O)ncnc32)[C@H](O)[C@@H]1O`, for which the maximal response is 26.5%.
Still for that read-out and setting: as for `O=S(=O)([O-])c1ccc2c(/N=N/c3ccc(S(=O)(=O)[O-])c4ccccc34)c(O)c(S(=O)(=O)[O-])cc2c1.[Na+].[Na+].[Na+]`, the figure is -50.2%.
For `O[C@@H]1C4=C(C)[C@@H](OC([C@H](O)[C@H]([C@@]6=CC=CC=C6)NC(OC(C)(C)C)=O)=O)C[C@@](C(C)4C)(O)[C@@H](OC(C5=CC=CC=C5)=O)[C@@]([C@]2(OC(C)=O)CO[C@@H]2C[C@@H]3O)([H])[C@]3(C)C1=O`, the maximal response was -59.5%.
`Cl.Cl.O=C1c2c(O)ccc(O)c2C(=O)c2c(NCCNCCO)ccc(NCCNCCO)c21`: the maximal response is -59.3%.
`CCOC(=O)[C@@H](CCc1ccccc1)N[C@@H]1CCc2ccccc2N(CC(=O)O)C1=O.Cl`: the maximal response is -30.1%.
With `COCCOC(=O)C1=C(C)NC(C)=C(C(=O)OC/C=C/c2ccccc2)C1c1cccc([N+](=O)[O-])c1` (configuration not stated), the maximal response is -49.9%.
Consider `CCCOc1ccc2nc(NC(=O)OC)sc2c1`, for which the maximal response is -48.5%.
For `CCNC(=O)N1CCN(CCCC(c2ccc(F)cc2)c2ccc(F)cc2)CC1.Cl`, the maximal response was -34.2%.
As for `O=C(O)c1cc(O)c2c(c1)[C@H]([C@H]1c3cc(C(=O)O)cc(O)c3C(=O)c3c(O[C@@H]4O[C@H](CO)[C@@H](O)[C@H](O)[C@H]4O)cccc31)c1cccc(O[C@@H]3O[C@H](CO)[C@@H](O)[C@H](O)[C@H]3O)c1C2=O`, the maximal response was -34.5%.
With `O[C@@]3(C#C)CC[C@H]2[C@@H]4CC/C1=C/c5oncc5C[C@]1(C)[C@H]4CC[C@@]23C`, the maximal response was -27.4%.
On to `O=[C@@](OC)[C@](C(N3)=C4C2=C3C=CC=C2)([C@@]5=CC([C@]69[C@]8([H])[C@](C=CCN8CC9)(CC)[C@@H](OC(C)=O)[C@](O)([C@](OC)=O)[C@@]([H])6N7C=O)=C7C=C5OC)C[C@H]1C[C@](CC)(O)CN(CC4)C1`, for which the maximal response is -44.6%.
